# In ChEMBL document CHEMBL4184323, “Structure-Guided Design, Synthesis, and Characterization of Next-Generation Meprin β Inhibitors” (J Med Chem, 2018):
# How the values were obtained:
# ADAM17 = ADAM17 (Homo sapiens, UniProt P78536); experiment: Inhibition of human ADAM17 assessed as residual activity using Abz-LANAVRSSSR-(DapDnp)-AR-NH2 as substrate at 200 uM by fluorescence assay relative to control; conditions: human ADAM17 enzyme, probe Abz-LANAVRSSSR-(DapDnp)-AR-NH2, read-out: Activity
# MMP9 = MMP9 (Homo sapiens, UniProt P14780); experiment: Inhibition of human MMP9 assessed as residual activity using Mca-PLGL-(DapDnp)-AR-NH2 as substrate at 200 uM by fluorescence assay relative to control; conditions: human MMP9 enzyme, probe Mca-PLGL-(DapDnp)-AR-NH2, read-out: Activity
# Sequence of MMP9 (P14780 whole entry): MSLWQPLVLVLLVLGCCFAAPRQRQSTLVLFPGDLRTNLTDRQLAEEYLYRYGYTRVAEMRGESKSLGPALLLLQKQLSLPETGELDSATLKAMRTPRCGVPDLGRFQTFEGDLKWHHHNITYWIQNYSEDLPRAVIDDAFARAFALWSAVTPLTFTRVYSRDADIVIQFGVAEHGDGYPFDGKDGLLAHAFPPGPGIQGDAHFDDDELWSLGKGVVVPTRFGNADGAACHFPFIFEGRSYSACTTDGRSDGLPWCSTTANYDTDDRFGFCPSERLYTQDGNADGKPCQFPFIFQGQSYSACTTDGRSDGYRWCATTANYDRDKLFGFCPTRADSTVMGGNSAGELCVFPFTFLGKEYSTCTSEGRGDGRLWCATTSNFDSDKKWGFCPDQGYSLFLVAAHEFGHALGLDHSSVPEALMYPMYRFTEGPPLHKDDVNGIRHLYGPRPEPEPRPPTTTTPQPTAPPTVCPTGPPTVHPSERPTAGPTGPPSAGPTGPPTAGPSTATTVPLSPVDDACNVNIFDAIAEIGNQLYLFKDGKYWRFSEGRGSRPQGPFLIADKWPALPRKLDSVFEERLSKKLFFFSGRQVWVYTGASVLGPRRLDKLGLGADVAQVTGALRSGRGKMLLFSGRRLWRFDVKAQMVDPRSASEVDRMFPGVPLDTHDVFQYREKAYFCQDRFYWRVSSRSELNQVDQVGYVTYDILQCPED
# Rattus norvegicus = experiment: Volume of distribution in Sprague-Dawley rat at 5 mg/kg, po by LC-MS analysis; assay type: ADME, organism-based; conditions: in vivo
# MMP2 = MMP2 (Homo sapiens, UniProt P08253); experiment: Inhibition of human MMP2 assessed as residual activity using Mca-PLGL-(DapDnp)-AR-NH2 as substrate at 200 uM by fluorescence assay relative to control; conditions: human MMP2 enzyme, probe Mca-PLGL-(DapDnp)-AR-NH2, read-out: Activity
# Sequence of MMP2 (P08253 whole entry): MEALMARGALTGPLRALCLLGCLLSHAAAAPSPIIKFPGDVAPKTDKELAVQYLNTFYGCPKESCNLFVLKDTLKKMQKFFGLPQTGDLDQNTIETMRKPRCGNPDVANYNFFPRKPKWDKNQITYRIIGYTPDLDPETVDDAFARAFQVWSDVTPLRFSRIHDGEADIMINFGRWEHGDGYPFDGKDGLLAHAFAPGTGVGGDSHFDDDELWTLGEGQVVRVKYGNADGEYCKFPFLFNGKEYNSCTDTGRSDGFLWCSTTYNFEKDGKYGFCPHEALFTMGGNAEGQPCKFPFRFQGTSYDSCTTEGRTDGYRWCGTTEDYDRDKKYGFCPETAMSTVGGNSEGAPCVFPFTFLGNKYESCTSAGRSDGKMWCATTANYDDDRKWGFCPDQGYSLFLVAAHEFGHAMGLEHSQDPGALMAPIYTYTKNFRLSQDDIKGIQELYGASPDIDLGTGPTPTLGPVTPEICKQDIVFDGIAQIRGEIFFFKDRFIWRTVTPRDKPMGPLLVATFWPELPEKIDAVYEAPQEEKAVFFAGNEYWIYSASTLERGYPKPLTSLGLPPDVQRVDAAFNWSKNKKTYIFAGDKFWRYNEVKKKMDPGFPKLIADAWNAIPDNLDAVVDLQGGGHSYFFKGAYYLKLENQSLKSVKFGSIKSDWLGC
# [1] = Half life in Sprague-Dawley rat at 6 mg/kg, iv by LC-MS analysis; assay type: ADME, organism-based; conditions: in vivo
# [2] = Cmax in Sprague-Dawley rat at 5 mg/kg, po by LC-MS analysis; assay type: ADME, organism-based; set-up: dose 5 mg/kg, route oral; conditions: in vivo
# [3] = Drug absorption in Sprague-Dawley rat at 10 mg/kg, ip by LC-MS analysis; assay type: ADME, organism-based; conditions: in vivo, read-out: Fabs
# [4] = Tmax in Sprague-Dawley rat at 10 mg/kg, ip by LC-MS analysis; assay type: ADME, organism-based; conditions: in vivo
# CYP2C9 = CYP2C9 (Homo sapiens, UniProt P11712); experiment: Inhibition of recombinant human CYP2C9 expressed in baculosomes assessed as residual activity at 25 uM using BOMCC substrate by fluorescence assay relative to control; assay type: ADME; conditions: probe BOMCC, read-out: Activity
# Sequence of CYP2C9 (P11712 whole entry): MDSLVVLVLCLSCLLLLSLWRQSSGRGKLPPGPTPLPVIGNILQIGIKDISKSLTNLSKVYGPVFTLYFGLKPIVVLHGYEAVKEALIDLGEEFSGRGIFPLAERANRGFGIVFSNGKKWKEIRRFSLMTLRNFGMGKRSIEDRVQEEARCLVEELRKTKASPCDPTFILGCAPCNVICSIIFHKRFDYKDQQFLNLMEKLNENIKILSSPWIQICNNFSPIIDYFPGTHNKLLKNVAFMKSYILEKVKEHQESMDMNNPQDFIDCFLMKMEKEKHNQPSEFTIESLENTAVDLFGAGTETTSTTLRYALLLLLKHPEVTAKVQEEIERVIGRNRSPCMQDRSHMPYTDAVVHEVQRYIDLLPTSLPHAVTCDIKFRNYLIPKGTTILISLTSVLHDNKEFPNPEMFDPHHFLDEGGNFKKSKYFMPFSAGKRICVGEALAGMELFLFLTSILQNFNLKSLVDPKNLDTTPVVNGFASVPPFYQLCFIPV
# MMP13 = MMP13 (Homo sapiens, UniProt P45452); experiment: Inhibition of human MMP13 assessed as residual activity using Mca-PLGL-(DapDnp)-AR-NH2 as substrate at 200 uM by fluorescence assay relative to control; conditions: human MMP13 enzyme, probe Mca-PLGL-(DapDnp)-AR-NH2, read-out: Activity
# SH-SY5Y = experiment: Cytotoxicity in human SH-SY5Y cells assessed as cell viability at 100 uM after 24 hrs by CytoTox-ONE-based assay relative to control; assay type: functional; conditions: read-out: Activity
# HepG2 = experiment: Cytotoxicity in human HepG2 cells assessed as cell viability at 100 uM after 24 hrs by CytoTox-ONE-based assay relative to control; assay type: functional; conditions: HepG2, 24 h, read-out: Activity
# [5] = Clearance in Sprague-Dawley rat at 6 mg/kg, iv by LC-MS analysis; assay type: ADME, organism-based; conditions: in vivo
# [6] = Tmax in Sprague-Dawley rat at 5 mg/kg, po by LC-MS analysis; assay type: ADME, organism-based; conditions: in vivo
# [7] = Drug absorption in Sprague-Dawley rat at 5 mg/kg, po by LC-MS analysis; assay type: ADME, organism-based; conditions: in vivo, read-out: Fabs
# meprin alpha = target: T1, meprin alpha (Homo sapiens, UniProt Q16819); experiment: Inhibition of recombinant human meprin alpha expressed in insect cells assessed as residual activity using Abz-YVADAPK(Dnp)G-OH as substrate at 200 uM by fluorescence assay relative to control; conditions: probe Abz-YVADAPK(Dnp)G-OH, read-out: Activity
# T1 sequence (Q16819 whole entry): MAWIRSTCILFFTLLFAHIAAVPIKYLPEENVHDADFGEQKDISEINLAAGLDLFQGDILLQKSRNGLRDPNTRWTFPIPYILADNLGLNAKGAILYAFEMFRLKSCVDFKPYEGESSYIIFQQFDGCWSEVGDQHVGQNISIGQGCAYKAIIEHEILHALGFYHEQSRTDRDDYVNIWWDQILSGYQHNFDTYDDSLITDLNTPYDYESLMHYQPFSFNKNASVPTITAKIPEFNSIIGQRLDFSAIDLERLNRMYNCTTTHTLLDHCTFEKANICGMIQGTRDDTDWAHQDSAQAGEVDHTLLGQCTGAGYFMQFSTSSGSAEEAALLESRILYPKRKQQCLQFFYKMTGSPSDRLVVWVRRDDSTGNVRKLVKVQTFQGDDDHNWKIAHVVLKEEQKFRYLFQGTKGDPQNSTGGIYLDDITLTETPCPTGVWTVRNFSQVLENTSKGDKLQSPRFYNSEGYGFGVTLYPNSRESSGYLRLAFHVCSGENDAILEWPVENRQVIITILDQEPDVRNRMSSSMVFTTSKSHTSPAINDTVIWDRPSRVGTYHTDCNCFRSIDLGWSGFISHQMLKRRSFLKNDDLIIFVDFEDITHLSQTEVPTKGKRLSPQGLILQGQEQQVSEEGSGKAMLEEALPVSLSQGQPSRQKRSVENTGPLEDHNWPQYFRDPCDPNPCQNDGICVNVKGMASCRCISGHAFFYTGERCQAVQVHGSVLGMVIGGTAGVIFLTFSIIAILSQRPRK
# CYP3A4 = CYP3A4 (Homo sapiens, UniProt P08684); experiment: Inhibition of recombinant human CYP3A4 expressed in baculosomes assessed as residual activity at 25 uM using BOMCC substrate by fluorescence assay relative to control; assay type: ADME; conditions: probe BOMCC, read-out: Activity
# Sequence of CYP3A4 (P08684 whole entry): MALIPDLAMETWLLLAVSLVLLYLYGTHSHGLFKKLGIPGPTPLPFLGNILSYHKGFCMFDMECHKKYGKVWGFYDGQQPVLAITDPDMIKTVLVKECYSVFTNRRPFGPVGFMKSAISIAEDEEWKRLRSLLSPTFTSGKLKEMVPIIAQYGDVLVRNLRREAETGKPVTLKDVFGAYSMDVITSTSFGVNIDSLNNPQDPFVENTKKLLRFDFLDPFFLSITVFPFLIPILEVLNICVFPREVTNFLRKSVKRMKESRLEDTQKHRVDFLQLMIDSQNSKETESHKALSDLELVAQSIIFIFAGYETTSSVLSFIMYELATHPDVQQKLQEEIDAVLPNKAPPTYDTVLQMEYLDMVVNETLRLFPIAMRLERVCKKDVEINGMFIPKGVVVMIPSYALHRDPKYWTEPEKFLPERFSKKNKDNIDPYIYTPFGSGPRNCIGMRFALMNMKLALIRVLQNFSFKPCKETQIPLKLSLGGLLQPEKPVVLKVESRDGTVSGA
# Sequence of ADAM17 (P78536 whole entry): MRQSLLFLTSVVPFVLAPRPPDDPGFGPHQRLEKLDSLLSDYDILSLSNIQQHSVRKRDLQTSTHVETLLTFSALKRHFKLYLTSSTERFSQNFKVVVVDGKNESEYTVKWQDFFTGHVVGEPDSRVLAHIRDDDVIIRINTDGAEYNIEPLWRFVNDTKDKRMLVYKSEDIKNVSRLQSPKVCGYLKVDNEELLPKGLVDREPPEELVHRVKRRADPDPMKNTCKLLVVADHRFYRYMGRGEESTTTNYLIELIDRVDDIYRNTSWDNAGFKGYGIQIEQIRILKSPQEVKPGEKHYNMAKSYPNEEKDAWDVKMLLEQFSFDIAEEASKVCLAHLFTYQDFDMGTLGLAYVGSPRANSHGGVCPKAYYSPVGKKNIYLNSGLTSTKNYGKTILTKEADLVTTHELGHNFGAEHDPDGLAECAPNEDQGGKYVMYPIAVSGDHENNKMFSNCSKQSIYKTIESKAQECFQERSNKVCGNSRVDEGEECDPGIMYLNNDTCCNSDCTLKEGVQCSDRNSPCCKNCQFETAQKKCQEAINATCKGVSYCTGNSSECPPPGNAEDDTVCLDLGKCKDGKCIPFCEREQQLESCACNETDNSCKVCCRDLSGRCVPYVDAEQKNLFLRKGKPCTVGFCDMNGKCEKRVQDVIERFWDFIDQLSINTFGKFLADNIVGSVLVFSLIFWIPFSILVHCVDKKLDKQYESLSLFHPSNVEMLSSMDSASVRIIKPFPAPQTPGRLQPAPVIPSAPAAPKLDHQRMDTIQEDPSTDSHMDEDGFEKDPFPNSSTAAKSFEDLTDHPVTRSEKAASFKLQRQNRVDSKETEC
smiles,measurement,setting,value
O=C(CN(Cc1cccc(C(=O)O)c1)Cc1cccc(C(=O)O)c1)NO,activity at 200 µM,ADAM17,76%
same,activity at 200 µM,MMP9,74%
same,Vd,Rattus norvegicus,0.073 L
same,activity at 200 µM,MMP2,64%
same,half-life,[1],150 min
same,Cmax,[2],340 ng/mL
same,Fa,[3],84%
same,Tmax,[4],7.2 min
same,activity at 25 µM,CYP2C9,101%
same,activity at 200 µM,MMP13,78%
same,viability at 100 µM,SH-SY5Y,96%
same,viability at 100 µM,HepG2,97%
same,clearance,[5],29.7 mL/min/kg
same,Tmax,[6],10.2 min
same,Fa,[7],13%
same,activity at 200 µM,meprin alpha,< 10%
same,activity at 25 µM,CYP3A4,86%
